Laboratory results from article PMC8232238 (Cells, 2021).

What was measured:
HDAC3 = target: T1, HDAC3 (Homo sapiens, UniProt O15379); assay: HDAC3 enzyme inhibition assay (single point and 10-dose IC50, Reaction Biology); type: biochemical
T1 construct: purchased Reaction Biology corporation (contract assay)
Protocol: All IC50 measurements we performed by Reaction Biology corporation. Compounds were tested in
dilution starting at 1 uM. […]
(RHK(Ac)K(Ac)AMC). IC50 values were calculated using the GraphPad Prism 4 program based on a
sigmoidal dose-response equation. […]

[1] = tested on: acetylated histone in A549 cells; assay: Histone acetylation in A549 cells, immunostaining with high content imaging; type: cell-based, human; conditions: 24 h
Protocol: (§1) To confirm the observed activities of the selected test compounds against HDAC6, the acetylation status of tubulin in the human lung cancer cell line A549 was investigated by immunostaining combined with automated high content image analysis (see supplementary material for full details). […] The apparent drop in histone acetylation by both compounds above 10 μM is indicative of a potential cytotoxicity at higher concentrations (data not shown).
(§2) Figure 5 Cell-based assessment of HDAC activity and selectivity. Dose and time-dependency of tubulin and histone acetylation by test compounds. A549 cells were treated with (A,B) different concentrations (0–50 µM) of CF011, KNH019 and tubastatin for 24 h or with (C,D) 1 µM over different time intervals before (A,C) tubulin acetylation or (B,D) histone acetylation were automatically quantified using high content imaging. Data represent the average of four independent experiments with four replicate wells/experiments. The statistical significances of effects compared to the untreated control were analysed using Brown–Forsythe and Welch one-way ANOVA analyses using Graph Pad Prism. The significance was set as * 0.05 > p ≥ 0.01, ** 0.01 > p ≥ 0.002. Error bars represent the Standard Error of Mean (SEM). (E) Representative fluorescence images show tubulin acetylation (yellow), histone acetylation (red) and nuclear counterstain (DAPI, blue) after 24 h of exposure to test compounds. Secondary antibodies were detected using excitation/emission filters for CY3 (excitation: 542/27 nm, emission: 597/45 nm), CY5 (excitation: 632/22 nm, emission: 684/25 nm) and DAPI (excitation: 390/18 nm, emission: 435/48 nm), respectively. […]
(§3) S2.2 Cell Culture, Treatment and Immunostaining:
(§4) A549 cells (ATCC® CCL-185™, In Vitro Technologies Pty. Ltd., Victoria, Australia) were cultured in low glucose Dulbecco’s Modified Eagle Media (DMEM, 1 g/L glucose, 0.584 g/L L-glutamine, 3.7 g/L sodium bicarbonate, 10 % fetal bovine serum) under standard conditions (> 90 % humidity, 37 °C temperature, 5 % CO 2). For experiments, 5,000 cells/ well were seeded in 100 µl serum free DMEM in 384 well plates (µCLEAR®, Greiner) and left to adhere for 24 hours before the treatment. Cells were treated with 100 µl of test compound -containing media for up to 24 hours before cells were fixed with 4 % paraformaldehyde (PFA) solution in PBS (10 minutes at room temperature (RT)) and permeabi lized with 50 µl of 0.5 % Triton X -100 in PBS. Subsequently, cells were blocked in PBST (5% fetal bovine serum, 5% bovine serum albumin, 5% goat serum, 0.1% Tween 20 in PBS) before stained with anti - acetylated tubulin (T7451, Sigma Aldrich; 1:1,000) and an ti-acetylated histone antibody (ab47915, Abcam; 1:1,000) overnight at 4 °C. Subsequently, cells were exposed to secondary antibodies (goat anti-mouse Alexa fluor 594 (Invitrogen; 1:10,000) and goat anti -rabbit Alexa fluor 647 (Invitrogen; 1:10,000) in PBST ) and DAPI solution (Invitrogen; 1:10,000 in PBST) before images were acquired.
(§5) Fluorescence images were acquired (10x magnification, 2 -D format) using the InCell 2200 high content imaging system (V7.3, GE Healthcare life sciences) wi th CY3 (excitation: 542/27 nm, emission: 597/45 nm), CY5 (excitation: 632/22 nm, emission: 684/25 nm) and DAPI (excitation: 390/18 nm, emission:
435/48 nm) filters. […] Data was expressed as % Relative Fluorescence Units (RFU) […]

[2] = tested on: acetylated tubulin in A549 cells; assay: Tubulin acetylation in A549 cells, immunostaining with high content imaging; type: cell-based, human; conditions: 24 h
Protocol: as §1, §2, §3, §4, §5
435/48 nm) filters. Two images/well at predefined positions were automatically acquired with 4 replicate wells for each treatment condition/ experiment. At least 3 independent experiments were conducted for each condition. Acquired images were automatically processed using InCarta software (v1.6, GE Healthcare life sciences). All images were manually checked for ar tefacts. Images with less than 30 cells were excluded from the analysis. Excel and GraphPad Prism was used for statistical analysis and graphical representation. Data was expressed as % Relative Fluorescence Units (RFU) […]

[3] = UV/Vis absorption and fluorescence (photophysical properties) in DMSO; type: physicochemical
Protocol: S1.6 UV/Vis and Fluorescence Data
UV/Vis analysis was performed on a Cary Eclipse 300 UV/Vis spectrophotometer and fluorescence measurements performed on a Cary Eclipse Fluorescence spectrophotometer. All analysis was performed in 10 mm quartz cuvettes using AR grade DMSO. Relative quantum yields were obtained by comparison to quinine sulfate (фf = 0.58 in 0.1 M H2SO4) with absorbance of samples adjusted so that the absorbance at 340 nm was similar to the reference.
Emission spectra were obtained by excitation at 340 nm. Quantum yield was obtained by use of the following equation and are reported as the average of two samples with error <5%; […]
Where фref is the literature quantum yield of the reference, η is the refractive index of the solvent (H2O = 1.333, DMSO = 1.479) and Is is the integrated fluorescence intensity of the sample with Iref being the same of the reference.
Table S1 – Photophysical properties of selected compounds in DMSO […]
†Average of two samples, ±1%

T1 sequence (O15379 whole entry): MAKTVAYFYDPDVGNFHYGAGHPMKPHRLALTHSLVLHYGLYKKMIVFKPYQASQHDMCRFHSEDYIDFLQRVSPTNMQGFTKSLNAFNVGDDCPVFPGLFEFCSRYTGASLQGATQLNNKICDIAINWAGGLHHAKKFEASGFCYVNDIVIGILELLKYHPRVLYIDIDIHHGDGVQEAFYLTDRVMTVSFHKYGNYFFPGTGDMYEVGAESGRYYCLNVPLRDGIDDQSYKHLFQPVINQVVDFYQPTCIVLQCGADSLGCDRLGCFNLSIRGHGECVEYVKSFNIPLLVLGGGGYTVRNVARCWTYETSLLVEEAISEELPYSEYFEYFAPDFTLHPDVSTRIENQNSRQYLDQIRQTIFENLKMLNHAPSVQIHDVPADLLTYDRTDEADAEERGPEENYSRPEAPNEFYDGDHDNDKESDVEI
T1 sequence (Q9Y618 395-489 partner limits assumed): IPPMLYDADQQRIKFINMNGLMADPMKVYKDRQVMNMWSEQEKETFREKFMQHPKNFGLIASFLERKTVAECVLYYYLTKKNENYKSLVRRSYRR

Structure (SMILES): O=C(CCCCCN1C(=O)c2cccc3cc(NC(=O)c4ccccc4)cc(c23)C1=O)NO [KNH019]
- IC50 (HDAC3; average of two independent measurements): 64 ± 0.2 nM
- Selectivity factor (SF) HDAC3 against HDAC6 (HDAC3; selectivity for HDAC6 over HDAC3): 64
- HDAC3 average enzyme isoform activity (percentage of full enzyme activity) (HDAC3; single point, inhibitor 1.0 μM, average of two measurements, ±2%): 24.1%
- Histone acetylation in representative immunostaining images ([1]; 10 µM): strongly induce
- Concentration from which histone acetylation was significantly increased ([1]; compared to untreated cells): 10^−2 mM
- Increase of tubulin acetylation compared to untreated cells (up to) ([2]; 0-50 µM, dose-dependent): ~1.5 fold
- Tubulin acetylation in representative immunostaining images ([2]; 10 µM): strongly induce
- Concentration from which tubulin acetylation was significantly increased ([2]; compared to untreated cells): 10^−6 mM
- λabs (absorption maximum) [3]: 343 nm
- λabs (secondary absorption maximum) [3]: 374 nm
- λem ([3]; excitation at 340 nm): 437 nm
- Φf (fluorescence quantum yield) ([3]; relative to quinine sulfate, average of two samples): 0.05
